In test [1] the test system is tubulin (vinblastine-binding site). Briefly: Spin column assay with [^3H]vinblastine. The settings on record: tubulin with [^3H]vinblastine and unlabeled competitor, 37° C. 1 h. The protocol:
(§1) Spin column assay. […] The reaction mixtures were incubated at 37° C. for 1 h. The samples were loaded onto Illustra™ MicroSpin™ G-50 columns (GE Healthcare) previously equilibrated with the buffer solution. The columns were placed into 1.5-ml tubes and spun at 750 g for 2 min at room temperature, and radioactivity in the flow-through was analyzed by a scintillation counter.

The test system of test [2] is KB200 cells over-expressing multiple drug resistant (MDR) gene. Briefly: Inhibition of cell proliferation, xCelligence cell index. It counts as cell-based. The settings on record: Homo sapiens, 72 hr post compound treatment, read-out: calculated IC50.
Text: (§2) The biological activity of compounds disclosed herein was monitored and profiled using the Real-Time Cell Electronic Sensing (RT-CES®) system from ACEA Biosciences, Inc. The RT-CES system utilizes cell-substrate impedance technology to monitor cellular behavior inside tissue culture wells in a microtiter plate format. The technology features in the integration of molecular and cell biology with microelectronics and is based on the electronic detection of biological assay process.
For measurement of cell-substrate or cell-electrode impedance using RT-CES technology, microelectrodes having appropriate geometries are fabricated onto the bottom surfaces of microtiter plate or similar device, facing into the wells. Cells are introduced into the wells of the devices, and make contact to and attach to the electrode surfaces. The presence, absence or change of properties of cells affects the electronic and ionic passage on the electrode sensor surfaces. Measuring the impedance between or among electrodes provides important information about biological status of cells present on the sensors. When there are changes to the biological status of the cells analogue electronic readout signals are measured automatically and in real time, and are converted to digital signals for processing and for analysis. In a RT-CES system, a cell index (arbitrary representation of change in impedance) is automatically derived and provided based on measured electrode impedance values. The cell index obtained for a given well reflects: 1) how many cells are attached to the electrode surfaces in this well; 2) how well cells are attached to the electrode surfaces in this well. Thus, the more the cells of same type in similar physiological conditions attach the electrode surfaces, the larger the cell index. And, the better the cells attach to the electrode surfaces (e.g., the cells spread-out more to have larger contact areas, or the cells attach tighter to electrode surfaces), the larger the cell index.
To quantify cell status based on the measured cell-electrode impedance, a parameter termed Cell Index is derived. Cell Index is a quantitative measure of the status of the cells in an electrode-containing well. Under the same physiological conditions, more cells attached on to the electrodes leads to larger cell-electrode resistance value, leading to a larger value for Cell Index. Furthermore, for the same number of cells present in the well, a change in the cell status such as morphology will lead to a change in the Cell Index. […]
The efficacy of these compounds was also tested against KB200 cell over-expressing multiple drug resistant (MDR) gene. […] The cell status was monitored prior to and after the compound addition using xCelligence system (Roche). […]
The test system of test [3] is tubulin (colchicine-binding site). Briefly: Spin column assay with [^3H]colchicine. Particulars: tubulin with [^3H]colchicine and unlabeled competitor, 37° C. 1 h. The protocol: as §1
In test [4] the test system is KB cells (parental cervical cancer cell line). Briefly: Inhibition of cell proliferation, xCelligence cell index. It counts as cell-based. The settings on record: Homo sapiens, 72 hr post compound treatment, read-out: calculated IC50.
Text: as §2
For measurement of cell-substrate or cell-electrode impedance using RT-CES technology, microelectrodes having appropriate geometries are fabricated onto the bottom surfaces of microtiter plate or similar device, facing into the wells. Cells are introduced into the wells of the devices, and make contact to and attach to the electrode surfaces. The presence, absence or change of properties of cells affects the electronic and ionic passage on the electrode sensor surfaces. Measuring the impedance between or among electrodes provides important information about biological status of cells present on the sensors. When there are changes to the biological status of the cells analogue electronic readout signals are measured automatically and in real time, and are converted to digital signals for processing and for analysis. In a RT-CES system, a cell index (arbitrary representation of change in impedance) is automatically derived and provided based on measured electrode impedance values. The cell index obtained for a given well reflects: 1) how many cells are attached to the electrode surfaces in this well; 2) how well cells are attached to the electrode surfaces in this well. […]
To quantify cell status based on the measured cell-electrode impedance, a parameter termed Cell Index is derived. Cell Index is a quantitative measure of the status of the cells in an electrode-containing well. […]
The parental cervical cancer cell line, KB cells were first tested. […] The cell status was monitored prior to and after the compound addition using xCelligence system (Roche). […]

Take `CC[C@]1(O)C[C@@H]2CN(CCc3c([nH]c4ccccc34)[C@@](C(=O)OC)(c3cc4c(cc3OC)N(C)[C@H]3[C@@](O)(C(=O)OC)[C@H](OC(C)=O)[C@]5(CC)C=CCN6CC[C@]43[C@@H]65)C2)C1` [vinblastine, reference compound]: the “amount of [^3H]vinblastine in the flow-through” value in test [1] was “reduced the amount of [^3H]vinblastine found in the flow-through in a concentration-dependent manner”. In addition, the IC50 (as a rule, the concentration at which inhibition is half-maximal) is 135 nM in test [2] and 4.74 nM in test [4]. The “amount of [^3H]colchicine in the flow-through” value in test [3] was “did not influence the amount of [^3H]colchicine in the flow-through”.
